ChEMBL document CHEMBL2073806, “Effect of PCB-126 on intracellular accumulation and transepithelial transport of vinblastine in LLC-PK1 and its transformant cells expressing human P-glycoprotein” (J Vet Med Sci, 2004)

Molecular target: ATP-dependent translocase ABCB1 (Homo sapiens, UniProt P08183)
Experiment: TP_TRANSPORTER: transepithelial transport (basal to apical) in LLC-MDR1 cells
Format: functional, cell-based
Details: pig

Chain of ATP-dependent translocase ABCB1 (P08183 whole entry): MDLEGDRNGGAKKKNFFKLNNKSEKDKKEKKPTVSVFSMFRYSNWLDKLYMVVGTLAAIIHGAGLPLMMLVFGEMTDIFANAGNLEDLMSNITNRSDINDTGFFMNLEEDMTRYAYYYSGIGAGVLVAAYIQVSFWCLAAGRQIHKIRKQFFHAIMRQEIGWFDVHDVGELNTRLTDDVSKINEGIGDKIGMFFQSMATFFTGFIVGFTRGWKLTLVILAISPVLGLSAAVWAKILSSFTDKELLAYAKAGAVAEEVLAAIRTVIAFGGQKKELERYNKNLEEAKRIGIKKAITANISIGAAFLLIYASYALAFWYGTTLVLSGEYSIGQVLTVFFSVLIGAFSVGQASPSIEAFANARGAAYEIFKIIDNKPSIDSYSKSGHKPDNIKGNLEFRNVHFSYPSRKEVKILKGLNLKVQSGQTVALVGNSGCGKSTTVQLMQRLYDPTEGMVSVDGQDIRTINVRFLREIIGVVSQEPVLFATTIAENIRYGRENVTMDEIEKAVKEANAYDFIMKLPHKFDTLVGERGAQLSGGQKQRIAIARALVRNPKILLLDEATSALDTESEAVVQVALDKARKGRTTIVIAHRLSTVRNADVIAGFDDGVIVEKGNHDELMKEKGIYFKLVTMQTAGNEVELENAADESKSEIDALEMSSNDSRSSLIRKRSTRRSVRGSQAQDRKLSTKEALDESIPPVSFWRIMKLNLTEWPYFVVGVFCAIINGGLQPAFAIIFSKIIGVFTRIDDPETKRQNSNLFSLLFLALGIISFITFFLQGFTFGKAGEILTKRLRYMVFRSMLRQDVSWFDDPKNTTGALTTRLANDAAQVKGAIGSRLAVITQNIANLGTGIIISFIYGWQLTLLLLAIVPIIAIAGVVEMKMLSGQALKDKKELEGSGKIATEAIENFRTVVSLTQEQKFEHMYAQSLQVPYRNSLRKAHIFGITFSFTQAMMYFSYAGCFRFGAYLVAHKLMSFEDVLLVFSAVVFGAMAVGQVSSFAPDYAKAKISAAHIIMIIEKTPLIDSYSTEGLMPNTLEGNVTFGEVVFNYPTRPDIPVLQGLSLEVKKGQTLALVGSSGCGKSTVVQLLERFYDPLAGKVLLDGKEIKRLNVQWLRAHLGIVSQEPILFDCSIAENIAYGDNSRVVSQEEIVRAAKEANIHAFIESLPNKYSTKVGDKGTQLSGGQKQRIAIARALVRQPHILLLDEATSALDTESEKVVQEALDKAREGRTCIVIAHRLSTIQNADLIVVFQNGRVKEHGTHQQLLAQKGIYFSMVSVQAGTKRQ

Q: `Clc1ccc(-c2cc(Cl)c(Cl)c(Cl)c2)cc1Cl` [POLYCHLORINATED BIPHENYL 126] was tested. Which Activity did it give?
A: Its Activity is “substrate [+]”.
